The text below walks through data of patent US20230183219A1, “CONDENSED SUBSTITUTED HYDROPYRROLES AS ANTAGONISTS OF THE MUSCARINIC ACETYLCHOLINE RECEPTOR M4” (Vanderbilt University, priority 2020, published 2023).

The term IC50 denotes the concentration needed to halve the response being measured.

For the assay, the target named is T1, Human M4 (Homo sapiens, UniProt P08173).
T1 construct: Human or rat M4 cDNA, along with the chimeric G protein Gqi5, were transfected into Chinese hamster ovary (CHO-K1) cells; expressed in transfected cells; host or cells: CHO-K1 (Chinese hamster ovary, ATCC), stably co-expressing Gqi5
T1 sequence (P08173 1-479): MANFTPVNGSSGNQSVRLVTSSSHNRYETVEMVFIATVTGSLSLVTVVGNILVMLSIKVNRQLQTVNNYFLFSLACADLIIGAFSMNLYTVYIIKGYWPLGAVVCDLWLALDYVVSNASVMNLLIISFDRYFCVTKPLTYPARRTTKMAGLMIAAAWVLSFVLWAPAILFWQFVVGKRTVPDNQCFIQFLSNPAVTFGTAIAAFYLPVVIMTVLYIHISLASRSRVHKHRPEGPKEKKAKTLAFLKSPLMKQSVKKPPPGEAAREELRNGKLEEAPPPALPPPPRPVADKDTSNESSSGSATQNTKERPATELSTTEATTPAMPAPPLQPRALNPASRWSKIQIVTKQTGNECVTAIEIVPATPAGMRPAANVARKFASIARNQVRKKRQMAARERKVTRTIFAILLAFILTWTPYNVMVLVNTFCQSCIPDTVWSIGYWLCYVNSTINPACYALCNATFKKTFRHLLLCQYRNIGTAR
Description: mAChR M4 cell-based functional assay (calcium flux, decrease of EC80 acetylcholine response). The note with it: for remaining activity at 30 µM: read-out: Human M4 Emin; for IC50: M4/Gqi5/CHO-K1 cells, decrease of response to EC80 acetylcholine. How it is done:
Human or rat M4 cDNA, along with the chimeric G protein Gqi5, were transfected into Chinese hamster ovary (CHO-K1) cells purchased from the American Type Culture Collection using Lipofectamine2000. M4/Gqi5/CHO cells were grown in Ham's F-12 medium containing 10% heat-inactivated fetal bovine serum (FBS), 20 mM HEPES, 500 μg/mL G418 sulfate, and 200 μg/mL Hygromycin B.
For high throughput measurement of agonist-evoked increases in intracellular calcium, CHO-K1 cells stably expressing muscarinic receptors were plated in growth medium lacking G418 and hygromycin at 15,000 cells/20 μL/well in Greiner 384-well black-walled, tissue culture (TC)-treated, clear-bottom plates (VWR). Cells were incubated overnight at 37° C. and 5% CO2. The next day, cells were washed using an ELX 405 (BioTek) with assay buffer; the final volume was then aspirated to 20 μL. Next, 20 μL of a 2.3 μM stock of Fluo-4/acetoxymethyl ester (Invitrogen, Carlsbad, Calif.), prepared as a 2.3 mM stock in DMSO and mixed in a 1:1 ratio with 10% (w/v) Pluronic F-127 and diluted in assay buffer, was added to the wells and the cell plates were incubated for 50 min at 37° C. and 5% CO2. Dye was removed by washing with the ELX 405 and the final volume was aspirated to 20 μL. Compound master plates were formatted in a 10 point concentration-response curve (CRC) format (1:3 dilutions) in 100% DMSO with a starting concentration of 10 or 1 mM using a BRAVO liquid handler (Agilent). Test compound CRCs were then transferred to daughter plates (240 nL) using the Echo acoustic plate reformatter (Labcyte, Sunnyvale, Calif.) and then diluted into assay buffer (40 μL) to a 2×stock using a Thermo Fisher Combi (Thermo Fisher Scientific, Waltham, Mass.).
Calcium flux was measured using the Functional Drug Screening System (FDSS) 6000 or 7000 (Hamamatsu Corporation, Tokyo, Japan) as an increase in the fluorescent static ratio. Compounds were applied to cells (20 μL, 2×) using the automated system of the FDSS at 2 seconds into the protocol and the data were collected at 1 Hz. At 143 s, 10 μL of an EC20 concentration of the muscarinic receptor agonist acetylcholine was added (5×), followed by the addition of 12 μL of an EC80 concentration of acetylcholine at the 268 s time point (5×). Agonist activity was analyzed as a concentration-dependent increase in calcium mobilization upon compound addition. Positive allosteric modulator activity was analyzed as a concentration-dependent increase in the EC20 acetylcholine response. Antagonist activity was analyzed as a concentration-dependent decrease in the EC80 acetylcholine response; for the purposes of the tables herein, an IC50 (inhibitory concentration 50) was calculated as a concentration-dependent decrease of the response elicited by an EC80 concentration of acetylcholine. Concentration-response curves were generated using a four-parameter logistical equation in XLFit curve fitting software (IDBS, Bridgewater, N.J.) for Excel (Microsoft, Redmond, Wash.) or Prism (GraphPad Software, Inc., San Diego, Calif.) or the Dotmatics software platform (Dotmatics, Bishop's Stortford, UK).
Compounds were synthesized as described above. Activity (IC50 and Emin) was determined in the mAChR M4 cell-based functional assay as described above and the data are shown in Table 2.
(A change in cytosolic calcium serves as a functional read-out for many receptors and channels.)

With `[2H]C([2H])(C1CCOCC1)N1C[C@H]2C[C@H](Nc3nnc(-c4ccc5c(c4)OCC5)cc3C(F)(F)F)C[C@H]2C1` [Example 123, (3aR,5s,6aS)-N-(6-(2,3-dihydro-benzofuran-6-yl)-4-(trifluoro-methyl)pyridazin-3-yl)-2-((tetrahydro-2H-pyran-4-yl)methyl-d2)octahydro-cyclopenta[c]pyrrol-5-amine], the IC50 is 55.3 nM. Also, the remaining activity at 30 µM (% ACh maximum at 30 μM) came out at 3%. As to `Cn1cc2cc(-c3cc(C(F)(F)F)c(N[C@H]4C[C@@H]5CN(C[C@H]6CCOC6)C[C@@H]5C4)nn3)ccc2n1` [Example 33, (3aR,5s,6aS)-N-(6-(2-methyl-2H-indazol-5-yl)-4-(trifluoro-methyl)pyridazin-3-yl)-2-(((R)-tetrahydrofuran-3-yl)methyl)octahydro-cyclopenta[c]pyrrol-5-amine], the IC50 amounted to 188 nM. Besides, for the setting “% ACh maximum at 30 μM”, the remaining activity at 30 µM worked out at 6%. For `[2H]C([2H])([C@H]1CCOC1)N1C[C@H]2C[C@H](Nc3nnc(-c4cc(C)ccc4C)cc3C(F)(F)F)C[C@H]2C1` [Example 116, (3aR,5s,6aS)-N-(6-(2,5-dimethylphenyl)-4-(trifluoro-methyl)pyridazin-3-yl)-2-(((R)-tetrahydrofuran-3-yl)methyl-d2)octahydro-cyclopenta[c]pyrrol-5-amine], in that order: 266 nM and 3%. For `O=C1Cc2cc(-c3cc(C(F)(F)F)c(N[C@H]4C[C@@H]5CN(CC6CCOCC6)C[C@@H]5C4)nn3)ccc2N1` [Example 63, 5-(6-(((3aR,5s,6aS)-2-((tetrahydro-2H-pyran-4-yl)methyl)octahydro-cyclopenta[c]pyrrol-5-yl)amino)-5-(trifluoro-methyl)pyridazin-3-yl)indolin-2-one], in that order: 95.6 nM and 3%. The like results for `Cn1cc2cc(-c3cc(C#N)c(N[C@H]4C[C@@H]5CN(C[C@@H]6CCOC6)C[C@@H]5C4)nn3)ccc2n1` [Example 154, 6-(2-methyl-2H-indazol-5-yl)-3-(((3aR,5s,6aS)-2-(((S)-tetrahydrofuran-3-yl)methyl)octahydro-cyclopenta[c]pyrrol-5-yl)amino)pyridazine-4-carbonitrile] were, in that order, 87.8 nM and 15%. For the compound `Cn1cc2cc(-c3cc(C#N)c(N[C@H]4C[C@@H]5CN(CC6CCOCC6)C[C@@H]5C4)nn3)ccc2n1` [Example 153, 6-(2-methyl-2H-indazol-5-yl)-3-(((3aR,5s,6aS)-2-((tetrahydro-2H-pyran-4-yl)methyl)octahydro-cyclopenta[c]pyrrol-5-yl)amino)pyridazine-4-carbonitrile], the IC50 was 9.7 nM. Moreover, the remaining activity at 30 µM (% ACh maximum at 30 μM) is 11%. The like results for `FC1(F)CCCN(c2cc(C(F)(F)F)c(N[C@H]3C[C@@H]4CN(CC5CCOCC5)C[C@@H]4C3)nn2)C1` [Example 138, (3aR,5s,6aS)-N-(6-(3,3-difluoro-piperidin-1-yl)-4-(trifluoro-methyl)pyridazin-3-yl)-2-((tetrahydro-2H-pyran-4-yl)methyl)octahydro-cyclopenta[c]pyrrol-5-amine] were, in that order, 21.2 nM and 2%. For `[2H]C([2H])([C@H]1CCCCO1)N1C[C@H]2C[C@H](Nc3nnc(-c4cc(C)ccc4C)cc3C(F)(F)F)C[C@H]2C1` [Example 114, (3aR,5s,6aS)-N-(6-(2,5-dimethylphenyl)-4-(trifluoro-methyl)pyridazin-3-yl)-2-(((R)-tetrahydro-2H-pyran-2-yl)methyl-d2)octahydro-cyclopenta[c]pyrrol-5-amine], in that order: 235 nM and 3%. The like results for `Cn1cc2cc(-c3cc(C#N)c(N[C@H]4C[C@@H]5CN(C[C@H]6CCOC6)C[C@@H]5C4)nn3)ccc2n1` [Example 155, 6-(2-methyl-2H-indazol-5-yl)-3-(((3aR,5s,6aS)-2-(((R)-tetrahydrofuran-3-yl)methyl)octahydro-cyclopenta[c]pyrrol-5-yl)amino)pyridazine-4-carbonitrile] were, in that order, 103 nM and 5%. On to `Cn1cc2cc(-c3cc(C(F)(F)F)c(N[C@H]4C[C@@H]5CN(CC6CCCOC6)C[C@@H]5C4)nn3)ccc2n1` (single isomer, unassigned) [Example 37], for which the IC50 was 76.1 nM. The “Human M4 Emin” value (% ACh maximum at 30 μM) is recorded as 5%. With `FC1(F)CCN(c2cc(C(F)(F)F)c(N[C@H]3C[C@@H]4CN(CC5CCOCC5)C[C@@H]4C3)nn2)C1` [Example 141, (3aR,5s,6aS)-N-(6-(3,3-difluoropyrrolidin-1-yl)-4-(trifluoromethyl)pyridazin-3-yl)-2-((tetrahydro-2H-pyran-4-yl)methyl)octahydro-cyclopenta[c]pyrrol-5-amine], the IC50 turned out to be 8.3 nM. Besides, the remaining activity at 30 µM (% ACh maximum at 30 μM) was found to be 2%. For `CN1Cc2cc(-c3cc(C(F)(F)F)c(N[C@H]4C[C@@H]5CN(CC6CCOCC6)C[C@@H]5C4)nn3)ccc2C1=O` [Example 86, 2-methyl-5-(6-(((3aR,5s,6aS)-2-((tetrahydro-2H-pyran-4-yl)methyl)octahydro-cyclopenta[c]pyrrol-5-yl)amino)-5-(trifluoro-methyl)pyridazin-3-yl)isoindolin-1-one], in that order: 200 nM and 4%. The like results for `Cc1ccc(F)cc1-c1cc(C(F)(F)F)c(N[C@H]2C[C@@H]3CN(CC4CCCOC4)C[C@@H]3C2)nn1` (single isomer, unassigned) [Example 120] were, in that order, 10.3 nM and 3%. The like results for `Cn1cnc2ccc(-c3cc(C(F)(F)F)c(N[C@H]4C[C@@H]5CN(CC6CCOCC6)C[C@@H]5C4)nn3)cc21` [Example 76, (3aR,5s,6aS)-N-(6-(1-methyl-1H-benzo[d]imidazol-6-yl)-4-(trifluoromethyl)pyridazin-3-yl)-2-((tetrahydro-2H-pyran-4-yl)methyl)octahydro-cyclopenta[c]pyrrol-5-amine] were, in that order, 93.8 nM and 3%.

With `Cc1ccc(F)cc1-c1cc(C#N)c(N[C@H]2C[C@@H]3CN(C[C@@H]4COCCO4)C[C@@H]3C2)nn1` [Example 150, 3-(((3aR,5s,6aS)-2-(((R)-1,4-dioxan-2-yl)methyl)octahydro-cyclopenta[c]pyrrol-5-yl)amino)-6-(5-fluoro-2-methylphenyl)pyridazine-4-carbonitrile], the IC50 stood at 30.5 nM. Further, the remaining activity at 30 µM (% ACh maximum at 30 μM) worked out at 3%. `Cc1c(-c2nnc(N(C)[C@H]3C[C@@H]4CN(CC5CCOCC5)C[C@@H]4C3)cc2C(F)(F)F)ccc2nn(C)cc12` [Example 7, (3aR,5s,6aS)—N-(6-(2,4-dimethyl-2H-indazol-5-yl)-5-(trifluoromethyl)pyridazin-3-yl)-N-(methyl-d3)-2-((tetrahydro-2H-pyran-4-yl)methyl)octahydrocyclopenta [c]pyrrol-5-amine]: the IC50 was 3670 nM.
